The assay addresses SARS-CoV-2 RdRp (nsp12-nsp7-nsp8 complex) (Severe acute respiratory syndrome coronavirus 2, UniProt P0DTD1). As to the kind of experiment: biochemical.
`O=c1ccn([C@@H]2O[C@H](COP(=O)(O)OP(=O)(O)OP(=O)(O)O)C[C@H]2O)c(=O)[nH]1` [3’-dUTP] yielded an EC50 of 0.751 µM.

`Cc1cn([C@@H]2O[C@H](COP(=O)(O)OP(=O)(O)OP(=O)(O)O)C[C@H]2O)c(=O)[nH]c1=O` [5-methyl-3’-dUTP] gave an EC50 of 0.107 µM. Compared with the last compound, the EC50 is about 7-fold lower.

In the case of `O=c1ccn([C@@H]2O[C@H](COP(=O)(O)OP(=O)(O)OP(=O)(O)O)[C@@H](O)[C@H]2O)c(=O)[nH]1` [UTP], the EC50 worked out at 0.0479 µM. Against the preceding compound, the EC50 is about 2.2-fold lower.

Values taken from article doi:10.1101/2024.09.20.614085v3 (biorxiv, 2026).
